These results are taken from patent publication US20230257372A1 (CHONG KUN DANG PHARMACEUTICAL CORP., priority 2020, published 2023).

The target of experiment [1] is T1, human recombinant HDAC6 (Homo sapiens, UniProt Q9UBN7).
T1 construct: purchased Calbiochem Inc. 382180
T1 sequence (Q9UBN7 1-1215): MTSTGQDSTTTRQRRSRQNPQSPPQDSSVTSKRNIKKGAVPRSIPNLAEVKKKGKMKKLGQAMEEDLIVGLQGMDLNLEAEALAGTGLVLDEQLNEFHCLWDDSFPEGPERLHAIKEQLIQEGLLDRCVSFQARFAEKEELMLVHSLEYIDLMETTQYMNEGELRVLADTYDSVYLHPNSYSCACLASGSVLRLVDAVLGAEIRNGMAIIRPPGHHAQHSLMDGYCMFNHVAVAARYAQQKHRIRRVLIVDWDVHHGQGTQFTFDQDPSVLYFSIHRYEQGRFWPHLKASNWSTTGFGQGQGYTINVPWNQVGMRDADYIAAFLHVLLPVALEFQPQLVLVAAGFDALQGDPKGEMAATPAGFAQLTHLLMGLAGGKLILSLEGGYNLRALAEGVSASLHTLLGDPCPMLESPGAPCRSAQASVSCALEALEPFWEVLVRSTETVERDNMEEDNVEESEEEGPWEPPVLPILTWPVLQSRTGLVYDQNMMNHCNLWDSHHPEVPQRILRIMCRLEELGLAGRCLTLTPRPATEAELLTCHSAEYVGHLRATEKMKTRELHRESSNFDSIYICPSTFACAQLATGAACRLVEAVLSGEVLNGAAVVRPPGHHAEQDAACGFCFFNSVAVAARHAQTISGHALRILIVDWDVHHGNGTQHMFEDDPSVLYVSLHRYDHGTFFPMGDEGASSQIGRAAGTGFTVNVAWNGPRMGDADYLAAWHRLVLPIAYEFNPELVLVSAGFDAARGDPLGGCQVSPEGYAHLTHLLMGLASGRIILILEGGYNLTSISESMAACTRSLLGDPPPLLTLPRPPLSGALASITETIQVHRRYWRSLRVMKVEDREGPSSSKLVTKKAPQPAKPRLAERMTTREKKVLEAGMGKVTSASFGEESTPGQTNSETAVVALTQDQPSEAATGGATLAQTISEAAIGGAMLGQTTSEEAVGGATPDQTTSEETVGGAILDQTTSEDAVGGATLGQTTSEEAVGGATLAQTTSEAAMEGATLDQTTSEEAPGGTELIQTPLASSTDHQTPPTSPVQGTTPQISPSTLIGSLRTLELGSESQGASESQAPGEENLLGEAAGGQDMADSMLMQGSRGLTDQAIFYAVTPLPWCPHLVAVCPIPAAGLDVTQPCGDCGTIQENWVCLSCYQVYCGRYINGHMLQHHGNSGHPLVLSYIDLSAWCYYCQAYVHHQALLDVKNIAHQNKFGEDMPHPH
The experiment in a line: HDAC6 enzyme activity inhibition (HDAC Fluorimetric Drug Discovery Kit). The conditions noted are these: for HDAC6 selectivity (fold): HDAC1 IC50 / HDAC6 IC50; for IC50: human recombinant HDAC6, IC50 calculated with GraphPad Prism. In kind it is biochemical. The method, boiled down: (§1)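 Each isoform is run in the same format: compound dilutions (5-fold steps), 10 μM substrate, […] enzyme, one hour at 30° C, then 30 minutes with developer before fluorescence readout.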

In experiment [2] the test system is hippocampal neurons from a Sprague-Dawley (SD) rat fetus. The experiment in a line: Effect of HDAC6-specific inhibitor on axonal transport of mitochondria in amyloid-beta treated neurons. In kind it is cell-based. The settings on record: transport velocity of mitochondria in neuronal axon after normalization; vehicle = 100%, amyloid beta treatment group = 0%; compound treatment for three hours. Here is the method:
On the 17th to 18th days (E17-18) of insemination, the hippocampal neurons from a Sprague-Dawley (SD) rat fetus were cultured in a culture container for imaging, which had been coated with extracellular matrix, and were treated with amyloid-beta protein fragments at a concentration of […]. In 24 hours later, the neurons were treated with the compound on the 8th day of in vitro culture. In three hours later, the resulting neurons were treated with MitoTracker Red CMXRos (Life Technologies, NY, USA) for last five minutes to stain mitochondria. An image on the axonal transport of stained neuron mitochondria was taken with a confocal microscope (Leica SP8; Leica microsystems, UK) at an interval of one second for one minute to measure a transport velocity of each mitochondria per second with an IMARIS analysis program (BITPLANE, Zurich, Switzerland).
In result, after setting a section, in which the group treated with amyloid-beta had shown a significant decrease in the transport velocity of mitochondria compared to a vehicle, it was confirmed for 1,3,4-oxadiazole triazol derivative compounds of the present invention, stereoisomers thereof or pharmaceutically acceptable salts thereof that the vehicles is represented as 100%, the amyloid beta treatment group is represented as 0%, a velocity distribution of the compound after normalization is represented as *, 0%˜50%; **, 50%˜100%; ***, >100%.

The target of experiment [3] is T2, human recombinant HDAC1 (Homo sapiens, UniProt Q13547).
T2 construct: purchased Enzo Life Science, Inc. BML-SE456
Nature of the experiment: HDAC1 enzyme activity inhibition (HDAC Fluorimetric Drug Discovery Kit). In kind it is biochemical. The settings on record: human recombinant HDAC1; IC50 calculated with GraphPad Prism; read-out: HDAC1. An outline of the steps: as §1

Bounds are passed on as bounds.

T2 sequence (Q13547 whole entry): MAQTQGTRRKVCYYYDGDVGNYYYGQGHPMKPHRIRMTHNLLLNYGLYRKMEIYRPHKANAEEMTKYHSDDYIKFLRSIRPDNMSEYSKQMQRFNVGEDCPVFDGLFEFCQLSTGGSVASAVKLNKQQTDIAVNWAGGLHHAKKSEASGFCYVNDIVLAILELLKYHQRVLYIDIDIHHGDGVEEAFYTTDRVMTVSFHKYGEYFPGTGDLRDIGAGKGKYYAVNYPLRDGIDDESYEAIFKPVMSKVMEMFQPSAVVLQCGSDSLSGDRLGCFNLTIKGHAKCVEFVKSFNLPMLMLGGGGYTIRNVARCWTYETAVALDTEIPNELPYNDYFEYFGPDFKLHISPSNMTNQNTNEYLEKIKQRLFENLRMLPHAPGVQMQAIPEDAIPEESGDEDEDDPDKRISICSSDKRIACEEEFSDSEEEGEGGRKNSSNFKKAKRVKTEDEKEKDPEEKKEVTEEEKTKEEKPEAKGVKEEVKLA

For the molecule `CCOC(=O)Nc1cccc(-c2cn(Cc3ccc(-c4nnc(C(F)F)o4)cn3)nn2)c1` [Compound 3826], the “HDAC6 selectivity (fold)” value in experiment [1] was 4132 fold. Further, the IC50 is 12.1 nM in experiment [1] and more than 50000 nM in experiment [3]. For the same molecule, the “Velocity distribution (%)” value in experiment [2] is recorded as “* (*, 0%˜50%)”.
For the molecule `FC(F)c1nnc(-c2ccc(Cn3cc(-c4ccc5cc[nH]c5c4)nn3)cc2)o1` [Compound 4076, 2-(4-((4-(1H-indol-6-yl)-1H-1,2,3-triazol-1-yl)methyl)phenyl)-5-(difluoromethyl)-1,3,4-oxadiazole], the “HDAC6 selectivity (fold)” value in experiment [1] was 739 fold. For the same molecule, the results for the IC50 in experiment [1] and in experiment [3] were 67.6 nM and more than 50000 nM, respectively. Also, the “Velocity distribution (%)” value in experiment [2] is given as “*** (***, >100%)”.
On to `CCn1ccc2ccc(-c3cn(Cc4ccc(-c5nnc(C(F)F)o5)cn4)nn3)cc21` [Compound 4136, 2-(difluoromethyl)-5-(6-((4-(1-ethyl-1H-indol-6-yl)-1H-1,2,3-triazol-1-yl)methyl)pyridin-3-yl)-1,3,4-oxadiazole], for which, in experiment [1], the “HDAC6 selectivity (fold)” value came out at 2873 fold and the IC50 is 17.4 nM. Further, the “Velocity distribution (%)” value in experiment [2] is given as “** (**, 50%˜100%)”. For the same molecule, in experiment [3], the IC50 was more than 50000 nM.
In the case of `O=C(c1cccc(-c2cn(Cc3ccc(-c4nnc(C(F)F)o4)cn3)nn2)c1)N1CCC1` [Compound 3886, Azetidin-1-yl(3-(1-((5-(5-(difluoromethyl)-1,3,4-oxadiazol-2-yl)pyridin-2-yl)methyl)-1H-1,2,3-triazol-4-yl)phenyl)methanone], in experiment [1], the “HDAC6 selectivity (fold)” value is on record as 1118 fold and the IC50 was 44.7 nM. The “Velocity distribution (%)” value in experiment [2] was “* (*, 0%˜50%)”. In addition, the IC50 in experiment [3] is more than 50000 nM.
In the case of `Cc1cc2cc(-c3cn(Cc4ccc(-c5nnc(C(F)F)o5)cn4)nn3)ccc2[nH]1` [Compound 4289, 2-(difluoromethyl)-5-(6-((4-(2-methyl-1H-indol-5-yl)-1H-1,2,3-triazol-1-yl)methyl)pyridin-3-yl)-1,3,4-oxadiazole], the “HDAC6 selectivity (fold)” value in experiment [1] was found to be 416 fold. Moreover, the IC50 in experiment [1] was 12 nM; in experiment [3] it was more than 50000 nM. In addition, the “Velocity distribution (%)” value in experiment [2] is “*** (***, >100%)”.
In the case of `Fc1cc(-c2nnc(C(F)F)o2)ccc1Cn1cc(-c2ccc3[nH]ccc3c2)nn1` [Compound 4135, 2-(4-((4-(1H-indol-5-yl)-1H-1,2,3-triazol-1-yl)methyl)-3-fluorophenyl)-5-(difluoromethyl)-1,3,4-oxadiazole], in experiment [1], the “HDAC6 selectivity (fold)” value was found to be 2941 fold and the IC50 was 16.7 nM. Further, in experiment [2], the “Velocity distribution (%)” value is listed as “** (**, 50%˜100%)”. Further, the IC50 in experiment [3] is more than 50000 nM.
With `FC(F)c1nnc(-c2ccc(Cn3cc(-c4cccc(-n5ccnc5)c4)nn3)nc2)o1` [Compound 4075, 2-(6-((4-(3-(1H-imidazol-1-yl)phenyl)-1H-1,2,3-triazol-1-yl)methyl)pyridin-3-yl)-5-(difluoromethyl)-1,3,4-oxadiazole], in experiment [1], the “HDAC6 selectivity (fold)” value stood at 3048 fold and the IC50 was 16.4 nM. Further, the “Velocity distribution (%)” value in experiment [2] is recorded as “*** (***, >100%)”. Besides, in experiment [3], the IC50 was more than 50000 nM.
For `FC(F)c1nnc(-c2ccc(Cn3cc(-c4cccc(N5CCN(C6CCC6)CC5)c4)nn3)cc2)o1` [Compound 4371, 2-(4-((4-(3-(4-cyclobutylpiperazin-1-yl)phenyl)-1H-1,2,3-triazol-1-yl)methyl)phenyl)-5-(difluoromethyl)-1,3,4-oxadiazole], in experiment [1], the “HDAC6 selectivity (fold)” value came to 917 fold and the IC50 was 54.5 nM. Moreover, the “Velocity distribution (%)” value in experiment [2] is given as “** (**, 50%˜100%)”. Moreover, the IC50 in experiment [3] was more than 50000 nM.
Regarding `FC(F)c1nnc(-c2ccc(Cn3cc(-c4cccc5[nH]ccc45)nn3)nc2)o1` [Compound 3839, 2-(6-((4-(1H-indol-4-yl)-1H-1,2,3-triazol-1-yl)methyl)pyridin-3-yl)-5-(difluoromethyl)-1,3,4-oxadiazole], in experiment [1], the “HDAC6 selectivity (fold)” value is recorded as 6756 fold and the IC50 was 7.4 nM. Also, the “Velocity distribution (%)” value in experiment [2] was “* (*, 0%˜50%)”. In addition, the IC50 in experiment [3] was more than 50000 nM.
For `CC(C)(C)C(=O)Nc1cccc(-c2cn(Cc3ccc(-c4nnc(C(F)F)o4)cn3)nn2)c1` [Compound 3825, N-(3-(1-((5-(5-(difluoromethyl)-1,3,4-oxadiazol-2-yl)pyridin-2-yl)methyl)-1H-1,2,3-triazol-4-yl)phenyl)pivalamide], in experiment [1], the “HDAC6 selectivity (fold)” value was found to be 4464 fold and the IC50 is 11.2 nM. Also, in experiment [2], the “Velocity distribution (%)” value was “*** (***, >100%)”. The IC50 in experiment [3] was more than 50000 nM.
As for `Cn1ncc2c(-c3cn(Cc4ccc(-c5nnc(C(F)F)o5)cn4)nn3)cccc21` [Compound 3842, 2-(difluoromethyl)-5-(6-((4-(1-methyl-1H-indazol-4-yl)-1H-1,2,3-triazol-1-yl)methyl)pyridin-3-yl)-1,3,4-oxadiazole], in experiment [1], the “HDAC6 selectivity (fold)” value was 2032 fold and the IC50 was 24.6 nM. Moreover, in experiment [2], the “Velocity distribution (%)” value is given as “** (**, 50%˜100%)”. Further, the IC50 in experiment [3] was more than 50000 nM.
On to `FC(F)c1nnc(-c2ccc(Cn3cc(-c4cccc(N5CCOCC5)c4)nn3)nc2)o1` [Compound 3866, 4-(3-(1-((5-(5-(difluoromethyl)-1,3,4-oxadiazol-2-yl)pyridin-2-yl)methyl)-1H-1,2,3-triazol-4-yl)phenyl)morpholin], for which, in experiment [1], the “HDAC6 selectivity (fold)” value stood at 2688 fold and the IC50 is 18.6 nM. The “Velocity distribution (%)” value in experiment [2] was “** (**, 50%˜100%)”. Besides, the IC50 in experiment [3] is more than 50000 nM.
Turning to `Fc1cc(-c2nnc(C(F)F)o2)ccc1Cn1cc(-c2cccc3[nH]ccc23)nn1` [Compound 4079, 2-(4-((4-(1H-indol-4-yl)-1H-1,2,3-triazol-1-yl)methyl)-3-fluorophenyl)-5-(difluoromethyl)-1,3,4-oxadiazole], the “HDAC6 selectivity (fold)” value in experiment [1] was determined as 1992 fold. The IC50 in experiment [1] was 25.1 nM; in experiment [3], more than 50000 nM. In addition, the “Velocity distribution (%)” value in experiment [2] is listed as “** (**, 50%˜100%)”.
For `Fc1cc(-c2nnc(C(F)F)o2)ccc1Cn1cc(-c2ccc3[nH]ncc3c2)nn1` [Compound 4345, 2-(4-((4-(1H-indazol-5-yl)-1H-1,2,3-triazol-1-yl)methyl)-3-fluorophenyl)-5-(difluoromethyl)-1,3,4-oxadiazole], the “Velocity distribution (%)” value in experiment [2] is recorded as “* (*, 0%˜50%)”. Further, in experiment [3], the IC50 is more than 50000 nM.
As for `FC(F)c1nnc(-c2ccc(Cn3nnc(-c4ccccc4)n3)nc2)o1` [Compound 4234, 2-(difluoromethyl)-5-(6-((5-phenyl-2H-tetrazol-2-yl)methyl)pyridin-3-yl)-1,3,4-oxadiazole], the “Velocity distribution (%)” value in experiment [2] is reported as “*** (***, >100%)”. In experiment [3], the IC50 is more than 50000 nM.
